Measurements published in patent publication US9902703B2, “Somatostatin modulators and uses thereof” (Crinetics Pharmaceuticals, Inc., priority 2015, dated 2018).

What follows are molecules tested against T1, human somatostatin receptor subtype 2 (Homo sapiens, UniProt P30874) (assay: cAMP assay (functional assay for SSTR2 agonists)). Conditions: CHO cells expressing human SSTR2; intracellular cAMP with forskolin, HTRF; read-out: SSTR2a EC50.
T1 construct: expressed in transfected cells; host or cells: CHO (Chinese hamster ovary) cells, G-418 selected
T1 sequence (P30874 whole entry): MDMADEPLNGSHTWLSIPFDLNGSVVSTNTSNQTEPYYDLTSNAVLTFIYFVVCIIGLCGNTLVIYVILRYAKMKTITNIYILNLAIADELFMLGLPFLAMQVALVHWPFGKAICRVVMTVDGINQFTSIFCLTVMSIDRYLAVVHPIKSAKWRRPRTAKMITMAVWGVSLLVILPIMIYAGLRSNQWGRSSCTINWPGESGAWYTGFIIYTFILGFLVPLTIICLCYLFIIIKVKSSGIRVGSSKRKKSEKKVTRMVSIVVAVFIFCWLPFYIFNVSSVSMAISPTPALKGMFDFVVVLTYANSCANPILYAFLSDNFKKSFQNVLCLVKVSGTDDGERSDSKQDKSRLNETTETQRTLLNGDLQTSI
Type: cell-based
Method in brief: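 CHO cells expressing human SSTR2 were treated with compound for 15 min at 37° C in buffer with forskolin, 0.2 mM IBMX and 0.1% BSA. Intracellular cAMP was read by HTRF after 1-24 h lysis at room temperature, and EC50 came from cAMP versus compound concentration curves.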
Molecule `Cc1cc(Cl)cc(N2C=Nc3cc(C)c(-c4cc(F)ccc4C)cc3C2C(=O)N(C)C[C@@H]2CCCN2)c1` (stereo partly drawn) [Compound 2-13, 3-(3-chloro-5-methylphenyl)-6-(5-fluoro-2-methylphenyl)-N,7-dimethyl-N-[(2S)-pyrrolidin-2-ylmethyl]-3,4-dihydroquinazoline-4-carboxamide] has an EC50 of less than 100 nM.
For `Cc1cc(Cl)cc(N2C=Nc3cc(C)c(-c4cc(C(N)=O)ccn4)cc3C2C(=O)N(C)C[C@@H]2CCCN2)c1` (stereo partly drawn) [Compound 2-14, 6-(4-carbamoylpyridin-2-yl)-3-(3-chloro-5-methylphenyl)-N,7-dimethyl-N-[(2S)-pyrrolidin-2-ylmethyl]-3,4-dihydroquinazoline-4-carboxamide], the EC50 was 100 to 1000 nM.
`COc1cc(C)cc(-c2cc3c(cc2C)N=CN(c2cc(C)cc(Cl)c2)C3C(=O)N(C)C[C@@H]2CCCN2)c1` (stereo partly drawn) [Compound 2-15, 3-(3-chloro-5-methylphenyl)-6-(3-methoxy-5-methylphenyl)-N,7-dimethyl-N-[(2S)-pyrrolidin-2-ylmethyl]-3,4-dihydroquinazoline-4-carboxamide] gave an EC50 of less than 100 nM.
Work on `COc1cc(-c2cc3c(cc2C)N=CN(c2cc(C)cc(Cl)c2)C3C(=O)N(C)C[C@@H]2CCCN2)ccc1C` (stereo partly drawn) [Compound 2-16, 3-(3-chloro-5-methylphenyl)-6-(3-methoxy-4-methylphenyl)-N,7-dimethyl-N-[(2S)-pyrrolidin-2-ylmethyl]-3,4-dihydroquinazoline-4-carboxamide] yielded an EC50 of less than 100 nM.
`Cc1cc(Cl)cc(N2C=Nc3cc(C)c(-c4cc(Cl)cc(C5(C#N)CC5)c4)cc3C2C(=O)N(C)C[C@@H]2CCCN2)c1` (stereo partly drawn) [Compound 2-17, 6-[3-chloro-5-(1-cyanocyclopropyl)phenyl]-3-(3-chloro-5-methylphenyl)-N,7-dimethyl-N-[(2S)-pyrrolidin-2-ylmethyl]-3,4-dihydroquinazoline-4-carboxamide] gave an EC50 of less than 100 nM.
Work on `Cc1cc(Cl)cc(N2C=Nc3cc(C)c(-c4cncc(C#N)c4)cc3C2C(=O)N(C)C[C@@H]2CCCN2)c1` (stereo partly drawn) [Compound 2-18, 3-(3-chloro-5-methylphenyl)-6-(5-cyanopyridin-3-yl)-N,7-dimethyl-N-[(2S)-pyrrolidin-2-ylmethyl]-3,4-dihydroquinazoline-4-carboxamide] yielded an EC50 of less than 100 nM.
`Cc1cc(Cl)cc(N2C=Nc3cc(C)c(-c4cc(C(F)(F)F)cnc4Cl)cc3C2C(=O)N(C)C[C@@H]2CCCN2)c1` (stereo partly drawn) [Compound 2-19, 6-[2-chloro-5-(trifluoromethyl)pyridin-3-yl]-3-(3-chloro-5-methylphenyl)-N,7-dimethyl-N-[(2S)-pyrrolidin-2-ylmethyl]-3,4-dihydroquinazoline-4-carboxamide] gave an EC50 of less than 100 nM.
`Cc1cc(Cl)cc(N2C=Nc3cc(C)c(-c4cc(F)cc(C(F)(F)F)c4)cc3C2C(=O)N(C)C[C@@H]2CCCN2)c1` (stereo partly drawn) [Compound 2-20, 3-(3-chloro-5-methylphenyl)-6-[3-fluoro-5-(trifluoromethyl)phenyl]-N,7-dimethyl-N-[(2S)-pyrrolidin-2-ylmethyl]-3,4-dihydroquinazoline-4-carboxamide] was tested, and the EC50 was less than 100 nM.
Work on `Cc1cc(Cl)cc(N2C=Nc3cc(C)c(-c4cc(O)cc(F)c4)cc3C2C(=O)N(C)C[C@@H]2CCCN2)c1` (stereo partly drawn) [Compound 2-21, 3-(3-chloro-5-methylphenyl)-6-(3-fluoro-5-hydroxyphenyl)-N,7-dimethyl-N-[(2S)-pyrrolidin-2-ylmethyl]-3,4-dihydroquinazoline-4-carboxamide] yielded an EC50 of less than 100 nM.
With `COc1cc(C#N)cc(-c2cc3c(cc2C)N=CN(c2cc(C)cc(Cl)c2)C3C(=O)N(C)C[C@@H]2CCCN2)c1` (stereo partly drawn) [Compound 2-24, 3-(3-chloro-5-methylphenyl)-6-(3-cyano-5-methoxyphenyl)-N,7-dimethyl-N-[(2S)-pyrrolidin-2-ylmethyl]-3,4-dihydroquinazoline-4-carboxamide] the EC50 was less than 100 nM.
`Cc1cc(Cl)cc(N2C=Nc3cc(C)c(-c4cc(C)oc4C)cc3C2C(=O)N(C)C[C@@H]2CCCN2)c1` (stereo partly drawn) [Compound 2-25, 3-(3-chloro-5-methylphenyl)-6-(2,5-dimethylfuran-3-yl)-N,7-dimethyl-N-[(2S)-pyrrolidin-2-ylmethyl]-3,4-dihydroquinazoline-4-carboxamide] gave an EC50 of 100 to 1000 nM.
`Cc1cc(Cl)cc(N2C=Nc3cc(C)c(-c4ccncc4Cl)cc3C2C(=O)N(C)C[C@@H]2CCCN2)c1` (stereo partly drawn) [Compound 2-26, 3-(3-chloro-5-methylphenyl)-6-(3-chloropyridin-4-yl)-N,7-dimethyl-N-[(2S)-pyrrolidin-2-ylmethyl]-3,4-dihydroquinazoline-4-carboxamide] showed an EC50 of 100 to 1000 nM.
For `Cc1cc(Cl)cc(N2C=Nc3cc(C)c(-c4ccnc(C#N)c4)cc3C2C(=O)N(C)C[C@@H]2CCCN2)c1` (stereo partly drawn) [Compound 2-27, 3-(3-chloro-5-methylphenyl)-6-(2-cyanopyridin-4-yl)-N,7-dimethyl-N-[(2S)-pyrrolidin-2-ylmethyl]-3,4-dihydroquinazoline-4-carboxamide], the EC50 was 100 to 1000 nM.
Molecule `COc1c(C#N)cccc1-c1cc2c(cc1C)N=CN(c1cc(C)cc(Cl)c1)C2C(=O)N(C)C[C@@H]1CCCN1` (stereo partly drawn) [Compound 2-28, 3-(3-chloro-5-methylphenyl)-6-(3-cyano-2-methoxyphenyl)-N,7-dimethyl-N-[(2S)-pyrrolidin-2-ylmethyl]-3,4-dihydroquinazoline-4-carboxamide] has an EC50 of less than 100 nM.
Work on `Cc1cc(Cl)cc(N2C=Nc3cc(C)c(-c4cc(C(N)=O)ccc4Cl)cc3C2C(=O)N(C)C[C@@H]2CCCN2)c1` (stereo partly drawn) [Compound 2-29, 6-(5-carbamoyl-2-chlorophenyl)-3-(3-chloro-5-methylphenyl)-N,7-dimethyl-N-[(2S)-pyrrolidin-2-ylmethyl]-3,4-dihydroquinazoline-4-carboxamide] yielded an EC50 of less than 100 nM.
`COc1cccc(-c2cc3c(cc2C)N=CN(c2cc(C)cc(Cl)c2)C3C(=O)N(C)C[C@@H]2CCCN2)c1C#N` (stereo partly drawn) [Compound 2-30, 3-(3-chloro-5-methylphenyl)-6-(2-cyano-3-methoxyphenyl)-N,7-dimethyl-N-[(2S)-pyrrolidin-2-ylmethyl]-3,4-dihydroquinazoline-4-carboxamide] was tested, and the EC50 was less than 100 nM.
`Cc1cc(Cl)cc(N2C=Nc3cc(C)c(-c4cccc(O)c4C#N)cc3C2C(=O)N(C)C[C@@H]2CCCN2)c1` (stereo partly drawn) [Compound 2-31, 3-(3-chloro-5-methylphenyl)-6-(2-cyano-3-hydroxyphenyl)-N,7-dimethyl-N-[(2S)-pyrrolidin-2-ylmethyl]-3,4-dihydroquinazoline-4-carboxamide] showed an EC50 of 100 to 1000 nM.
With `Cc1cc(Cl)cc(N2C=Nc3cc(C)c(-c4ccc(O)c(F)c4)cc3C2C(=O)N(C)C[C@@H]2CCCN2)c1` (stereo partly drawn) [Compound 2-32, 3-(3-chloro-5-methylphenyl)-6-(3-fluoro-4-hydroxyphenyl)-N,7-dimethyl-N-[(2S)-pyrrolidin-2-ylmethyl]-3,4-dihydroquinazoline-4-carboxamide] the EC50 was less than 100 nM.
`Cc1cc(Cl)cc(N2C=Nc3cc(C)c(-c4ccc5[nH]c(=O)[nH]c5c4)cc3C2C(=O)N(C)C[C@@H]2CCCN2)c1` (stereo partly drawn) [Compound 2-34, 3-(3-chloro-5-methylphenyl)-N,7-dimethyl-6-(2-oxo-2,3-dihydro-1H-1,3-benzodiazol-5-yl)-N-[(2S)-pyrrolidin-2-ylmethyl]-3,4-dihydroquinazoline-4-carboxamide] was tested, and the EC50 was less than 100 nM.
In the case of `COc1cc(F)cc(-c2cc3c(cc2C)N=CN(c2cc(C)cc(Cl)c2)C3C(=O)N(C)C[C@@H]2CCCN2)c1` (stereo partly drawn) [Compound 2-35, 3-(3-chloro-5-methylphenyl)-6-(3-fluoro-5-methoxyphenyl)-N,7-dimethyl-N-[(2S)-pyrrolidin-2-ylmethyl]-3,4-dihydroquinazoline-4-carboxamide], the EC50 is reported as less than 100 nM.
